Results reported in patent publication US11396531B2, “Antimicrobial peptides comprising epsilon lysine residues” (priority 2016, dated 2022).
≈ marks a conversion by molar mass, not a printed value. Where two headings read alike, the source gives them in different places.

Tests used:
A. baumannii = assay: microbe, parasite or virus in culture; conditions: A. baumannii (n = 10), Table 5
Procedure: (§1) MIC of cationic polymers and polypeptide were tested in accordance with the Clinical and Laboratory Standards Institute (CLSI) guidelines against a panel of antibiotic-susceptible/-resistant bacteria, yeasts and fungal strains. Bacterial and yeast strains were cultured on tryptic soy agar (TSA) and Sabaroud dextrose agar (SDA) plates (Neogen Corporation, MI, USA) overnight respectively. Inocula in Mueller-Hinton broth (MHB) for bacteria and SD broth for C. albicans (Beckton Dickinson, MD, USA) were prepared at 0.5 McFarland. The suspensions were then diluted to a final concentration of 10^5 CFU/ml in a 96-well microtitre plate (SPL Life Sciences Co., Ltd, Korea). […] The antimicrobial activities were compared with topical antiseptic agents, BAK and CHX. A similar protocol was used to determine the MIC of εPL against antibiotic-resistant pathogens. MIC of the polymers and polypeptides against Fusarium strains was determined in full strength RPMI-1640 buffer. Fungal spores were recovered from a 5-day old culture on a potato dextrose agar and diluted to a concentration of 10^5 spores/ml in 0.9% saline solution. A further 50-fold dilution was done in RPMI-1640 buffer and 100 μl of the inoculum was added to 96 well plates containing an equal volume of test peptides at 2-fold serial dilutions. 200 μl of inoculum without any additives and buffer alone served as positive and negative controls, respectively. The plate was then incubated at 30° C. for 48 h. The absorbance value was measured at 600 nm as before and the lowest concentration of the peptide which inhibited 90% growth was reported. All MIC determinations were performed in duplicates.
(§2) MICs of polymers/antibiotics were determined using the microdilution method in 96 well microtitre plates (SPL Life Sciences Co., Ltd, Korea), following the guidelines of Clinical and Laboratory Standards Institute (CLSI) document M100-S18. Briefly, polymers (1-512 μg/ml) or antibiotics were dissolved in appropriate media (Mueller Hinton broth, MHB for bacteria; Sabaroud's Dextrose (SD) broth for yeasts and RPMI buffer for Fusarium strains) and 100 μl of this was then mixed with an equal volume of microbial inoculum (OD600=˜0.08) in the same media and shaken in a closed incubator.

[1] = system: Carbapenam-resistant Enterobacter strains (CRE); assay: microbe, parasite or virus in culture; conditions: CRE (n = 19 strains), Table 5
Procedure: as §1, §2

E. cloacae complex = assay: microbe, parasite or virus in culture
Procedure: as §1, §2

[2] = system: primary human dermal fibroblasts (HDFs); assay: MTS cytotoxicity assay
Procedure: MTS ((3-(4,5-dimethylthiazol-2-yl)-5-(3-carboxymethoxyphenyl)-2-(4-sulfophenyl)-2H-tetrazolium)) assay and high content analysis (HCA) were performed to elucidate the effect of various polymers on metabolic activity and morphological parameters of cultured human dermal fibroblasts (hDF), respectively as described previously. The antineoplastic agent, nocodazole (5 μg/ml), served as the […] control whereas cells treated with PBS served as positive control. The average values from three independent triplicate experiments are reported. Cells were cultured in 96-well plates and scanned (16 randomly selected fields/well) using an automated microscope IN Cell Analyzer 2200 (GE Healthcare). The multi-parametric cytotoxicity bio-application module of the IN Cell Investigator software (GE Healthcare) was used in quantitative estimations and morphotypic analysis of acquired images, which were automatically converted into color-coded heatmaps using Spotrfire® software.
Human dermal fibroblast cells were seeded in 96-well plates (2×10^3 cells/well) and incubated for 24 h at 37° C. and 5% CO2. Cells were then treated with various concentrations of polymers or peptides (62.5 μg/ml-1 mg/ml. At the end of the treatment period (after 24 h), 20 or 50 μl of MTS tetrazolium solution was added into 96-well or 12-well plates and further incubated for 2 h at 37° C. Subsequently, the absorbance was measured at 490 nm using a microplate reader (Infinite M200 Pro, Tecan, Switzerland) and the relative cell viability was calculated. Each treatment was performed in two triplicates and reported.
The cytotoxicity of peptides and polymers were determined using CellTier 96® Aqueous One solution cell proliferation assay kit according to the manufacturer's instruction (Promega Corporation, Madison, Wis.). This assay evaluates mitochondrial function by measuring ability of viable cells to reduce MTS ((3-(4,5-dimethylthiazol-2-yl)-5-(3-carboxymethoxyphenyl)-2-(4-sulfophenyl)-2H-tetrazolium)) into a quantifiable […] formazan product. HDFs were seeded in 96-well plates (2×10^3 cells/well) and incubated for 24 h at 37° C. and 5% CO2. Cells were then treated with a concentrated stock solution of polymers (final concentration 62.5-2000 μg/ml in the well) or peptides (final concentration 4-1000 μg/ml in the well). After 24 h, 20 μl of MTS tetrazolium solution was added into 96-well well plates and further incubated for 2 h at 37° C. Subsequently, the absorbance was measured at 490 nm using a microplate reader (Infinite M200 Pro, Tecan, Switzerland) and the relative cell viability was calculated relative to untreated control (10 mM PBS, pH 7.0). Each treatment was performed in two triplicates and reported.

[3] = Calcein dye leakage from mammalian model LUVs; conditions: peptide:lipid ratio 0.0625
Procedure: To obtain an insight into the mechanism of membrane discrimination, large unilamellar vesicles (LUVs) which mimic the cytoplasmic membrane of mammalian (PC/Cholesterol) and microbial (PE:PG) cells were used. […] More dramatic results were observed when the experiments were carried out on PC/Cholesterol LUVs.

[4] = system: a number of micro-organisms; conditions: cited from earlier work
red blood cells = conditions: cited from earlier work

SMILES: CC[C@H](C)[C@H](NC(=O)CN)C(=O)NCC(=O)N[C@@H](C)C(=O)N[C@H](C(=O)N[C@@H](CC(C)C)C(=O)N[C@@H](CCCCN)C(=O)N[C@H](C(=O)N[C@@H](CC(C)C)C(=O)N[C@H](C(=O)N[C@H](C(=O)NCC(=O)N[C@@H](CC(C)C)C(=O)N1CCC[C@H]1C(=O)N[C@@H](C)C(=O)N[C@@H](CC(C)C)C(=O)N[C@H](C(=O)N[C@@H](CO)C(=O)N[C@@H](Cc1c[nH]c2ccccc12)C(=O)N[C@H](C(=O)N[C@@H](CCCCN)C(=O)N[C@@H](CCCNC(=N)N)C(=O)N[C@@H](CCCCN)C(=O)N[C@@H](CCCNC(=N)N)C(=O)N[C@@H](CCC(N)=O)C(=O)N[C@@H](CCC(N)=O)C(N)=O)[C@@H](C)CC)[C@@H](C)CC)[C@@H](C)O)[C@@H](C)O)C(C)C)C(C)C [Melittin]
- MIC90 (A. baumannii; 90% of strains susceptible): (MIC90 = 4)^2 μg/ml
- MIC (A. baumannii; range): 2 to 4 µg/mL
- MIC50 ([1]; 50% of strains susceptible): (MIC50 = 8)^2 μg/ml
- MIC ([1]; range): 8 to 32 µg/mL
- MIC (E. cloacae complex; E. cloacae complex 6780, Table 5): 8 µg/mL (≈ 2.81 µM)
- MIC (E. cloacae complex; E. cloacae complex 44095, Table 5): 8 µg/mL (≈ 2.81 µM)
- Cytotoxicity (in μg/ml) for HDFs ([2]; Concentration at which complete cytotoxicity was observed in MTS and HCA): 16 µg/mL
- Cytotoxicity for primary human dermal fibroblasts ([2]; Table 5): 16 µg/mL
- dye leakage from PC/Cholesterol LUVs [3]: ~70%
- MIC (range against a number of micro-organisms) ([4]; at 1 - 4 × 10^5 CFU/mL, reference 4): 0.2 - 3 μM at 1 -
- MIC (range against a number of micro-organisms) ([4]; at 1 × 10^6 CFU/mL, reference 6): 0.5 - 8 μM at
- MIC (range against a number of micro-organisms) ([4]; at 7.5 × 10^5 CFU/mL, reference 8): 3.9 - 31.3 μM at
- Haemolytic activity (red blood cells; at 4 μM, reference 4): 100% at 4 μM
- Haemolytic activity (red blood cells; at 5 μM, reference 8): 50% at 5 μM
- Haemolytic activity (red blood cells; at 10 μM, reference 6): >80% at 10 μM
